Assay results reported in US9540343B2 (Gilead Sciences, Inc., priority 2011, dated 2017).

Key:
[1] = in vitro
Summary of the method: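 Cytoprotection read-out: CellTiter-Glo chemiluminescence after 5 days at 37 °C of HIV-IIIb-infected MT-4 cells (m.o.i. 0.003) with compound in 10-point 3-fold dilutions, quadruplicate, 10% FBS. Cytotoxicity (CC50) measured identically without virus.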

[2] = tested on: HIV-IIIb; assay: Test A: Antiviral assay in MT4 cells; assay type: cell-based, HIV-1; conditions: MT-4 cells infected with HIV-IIIb, 5 days, CellTiter-Glo; for inhibition at 2 µM: Human immunodeficiency virus 1, IIIB, MT4, 120 h, read-out: % inhibition at 2 μM, percent inhibition of virus-induced cell killing, from dose response curve at 2 uM drug
[3] = human, uninfected MT-4 cells, CC50 (nM), same protocol as Test A, CellTiter-Glo

Row | SMILES | CC50 at 5 days [1, 3] [nM] | inhibition at 2 µM [2] [%] | CC50 at 5 days ([1]; human, CC50 (nM), uninfected MT-4 cells, same protocol as Test A, CellTiter-Glo) [nM] | % inhibition at 2 μM ([2]; percent inhibition of virus-induced cell killing, from dose response curve at 2 uM drug) [%]
1 | O=C(Cc1c[nH]c2ccc(F)cc12)NC(Cc1cc(F)cc(F)c1)c1nc[nH]c(=O)c1-c1ccc(Cl)cc1 (stereo not shown) [Example 328, N-(1-(5-(4-chlorophenyl)-6-oxo-1,6-dihydropyrimidin-4-yl)-2-(3,5-difluorophenyl)ethyl)-2-(5-fluoro-1H-indol-3-yl)acetamide] | 10000 | 0 |  | 
2 | NC(=O)c1cccc(-c2cccnc2[C@H](Cc2cc(F)cc(F)c2)NC(=O)Cc2cccc(Cl)c2)c1 [Example 510, (S)-3-(2-(1-(2-(3-chlorophenyl)acetamido)-2-(3,5-difluorophenyl)ethyl)pyridin-3-yl)benzamide] | 35900 | 3 |  | 
3 | CC(C)(C)OC(=O)N1C[C@H](O)C[C@H]1C(=O)N[C@@H](Cc1cc(F)cc(F)c1)c1ncccc1-c1ccc(F)c(C(N)=O)c1 [Example 132, (2S,4R)-tert-butyl 2-((S)-1-(3-(3-carbamoyl-4-fluorophenyl)pyridin-2-yl)-2-(3,5-difluorophenyl)ethylcarbamoyl)-4-hydroxypyrrolidine-1-carboxylate] | 22300 | 7 |  | 
4 | NC(=O)c1cccc(-c2cccnc2[C@H](Cc2cc(F)cc(F)c2)NC(=O)Cc2c[nH]c3ccc(C(F)(F)F)cc23)c1 [Example 596, (S)-3-(2-(2-(3,5-difluorophenyl)-1-(2-(5-(trifluoromethyl)-1H-indol-3-yl)acetamido)ethyl)pyridin-3-yl)benzamide] | 10900 | 96 |  | 
5 | CN1Cc2nn(CC(=O)N[C@@H](Cc3cc(F)cc(F)c3)c3ncccc3-c3ccc(F)c(C(N)=O)c3)c(C(F)(F)F)c2C1 [Example 210, (S)-5-(2-(2-(3,5-difluorophenyl)-1-(2-(5-methyl-3-(trifluoromethyl)-5,6-dihydropyrrolo[3,4-c]pyrazol-2(4H)-yl)acetamido)ethyl)pyridin-3-yl)-2-fluorobenzamide] | > 53200 | 0 |  | 
6 | COC1CN(C(=O)c2cc(C(C)C)n(CC(=O)N[C@@H](Cc3cc(F)cc(F)c3)c3ncccc3-c3ccc(F)c(C(N)=O)c3)n2)C1 [Example 576B, (S)-5-(2-(2-(3,5-difluorophenyl)-1-(2-(5-isopropyl-3-(3-methoxyazetidine-1-carbonyl)-1H-pyrazol-1-yl)acetamido)ethyl)pyridin-3-yl)-2-fluorobenzamide] | > 53200 | 2 |  | 
7 | NC(=O)c1cc(-c2cccnc2[C@H](Cc2cc(F)cc(F)c2)NC(=O)Cn2ccc3cc(Cl)ccc32)ccc1F [Example 585, (S)-5-(2-(1-(2-(5-chloro-1H-indol-1-yl)acetamido)-2-(3,5-difluorophenyl)ethyl)pyridin-3-yl)-2-fluorobenzamide] | 13700 | 58 |  | 
8 | O=C(Cn1nc(C(F)(F)F)c2c1CCCC2)N[C@@H](Cc1cc(F)cc(F)c1)c1nc[nH]c(=O)c1-c1ccc(Cl)cc1 [Example 301B, (S)—N-(1-(5-(4-chlorophenyl)-6-oxo-1,6-dihydropyrimidin-4-yl)-2-(3,5-difluorophenyl)ethyl)-2-(3-(trifluoromethyl)-4,5,6,7-tetrahydro-1H-indazol-1-yl)acetamide] | 5650 | 0 |  | 
9 | NC(=O)c1cc(-c2cccnc2[C@H](Cc2cc(F)cc(F)c2)NC(=O)Cn2c3c(c4ccccc42)CCCC3)ccc1F [Example 563, (S)-5-(2-(2-(3,5-difluorophenyl)-1-(2-(3,4-dihydro-1H-carbazol-9(2H)-yl)acetamido)ethyl)pyridin-3-yl)-2-fluorobenzamide] | 27000 | 62 |  | 
10 | NC(=O)c1cc(-c2cccnc2[C@H](Cc2cc(F)cc(F)c2)NC(=O)Cn2nc3c(c2C(F)F)C2CC2C3O)ccc1F (stereo partly drawn) [Example 243, 5-(2-((1S)-1-(2-(3-(difluoromethyl)-5-hydroxy-3b,4,4a,5-tetrahydro-2H-cyclopropa[3,4]cyclopenta[1,2-c]pyrazol-2-yl)acetamido)-2-(3,5-difluorophenyl)ethyl)pyridin-3-yl)-2-fluorobenzamide] | > 53200 | 33 |  | 
11 | O=C(Cc1c[nH]c2ccccc12)N[C@@H](Cc1cc(F)cc(F)c1)c1ncccc1-c1ccc(Cl)cc1 [Example 31, (S)—N-(1-(3-(4-chlorophenyl)pyridin-2-yl)-2-(3,5-difluorophenyl)ethyl)-2-(1H-indol-3-yl)acetamide] | 8630 | 34 |  | 
12 | NC(=O)c1cc(-c2cccnc2[C@H](Cc2cc(F)cc(F)c2)NC(=O)Cn2nc(C(N)=O)c3c2CC2CC32)ccc1F (stereo partly drawn) [Example 209, 1-(2-(((S)-1-(3-(3-carbamoyl-4-fluorophenyl)pyridin-2-yl)-2-(3,5-difluorophenyl)ethyl)amino)-2-oxoethyl)-3b,4,4a,5-tetrahydro-1H-cyclopropa[3,4]cyclopenta[1,2-c]pyrazole-3-carboxamide] | > 53200 | 51 |  | 
13 | NC(=O)c1cc(-c2cccnc2[C@H](Cc2cc(F)cc(F)c2)NC(=O)CN2CC(=O)Nc3ccccc32)ccc1F [Example 269, (S)-5-(2-(2-(3,5-difluorophenyl)-1-(2-(3-oxo-3,4-dihydroquinoxalin-1(2H)-yl)acetamido)ethyl)pyridin-3-yl)-2-fluorobenzamide] | > 53200 | 8 |  | 
14 | NC(=O)c1cc(-c2cccnc2[C@H](Cc2cc(F)cc(F)c2)NC(=O)Cn2nc(C(F)(F)F)c3c2CSC3)ccc1F [Example 189D, (S)-5-(2-(2-(3,5-difluorophenyl)-1-(2-(3-(trifluoromethyl)-4,6-dihydro-1H-thieno[3,4-c]pyrazol-1-yl)acetamido)ethyl)pyridin-3-yl)-2-fluorobenzamide] | 23300 | 48 |  | 
15 | NC(=O)c1cc(-c2cccnc2[C@H](Cc2cc(F)cc(F)c2)NC(=O)Cn2c3c(c4ccccc42)C(=O)CCC3)ccc1F [Example 574D, (S)-5-(2-(2-(3,5-difluorophenyl)-1-(2-(4-oxo-3,4-dihydro-1H-carbazol-9(2H)-yl)acetamido)ethyl)pyridin-3-yl)-2-fluorobenzamide] |  | 24 | 52500 | 
16 | NC(=O)c1cc(-c2cccnc2[C@H](Cc2cc(F)cc(F)c2)NC(=O)Cn2nc(C(F)(F)F)c3c2C(=O)CC3(F)F)ccc1F [Example 551, (S)-5-(2-(1-(2-(4,4-difluoro-6-oxo-3-(trifluoromethyl)-5,6-dihydrocyclopenta[c]pyrazol-1(4H)-yl)acetamido)-2-(3,5-difluorophenyl)ethyl)pyridin-3-yl)-2-fluorobenzamide] | > 53200 | 0 |  | 
17 | COc1ccc2c(c1)C(CC(=O)N[C@@H](Cc1cc(F)cc(F)c1)c1ncccc1-c1ccc(F)c(C(N)=O)c1)C(=O)N2 (stereo partly drawn) [Example 202, 5-(2-((1S)-2-(3,5-difluorophenyl)-1-(2-(5-methoxy-2-oxoindolin-3-yl)acetamido)ethyl)pyridin-3-yl)-2-fluorobenzamide] | > 53200 | 1 |  | 
18 | COc1cc(C)c(-c2cccnc2C(Cc2cc(F)cc(F)c2)NC(=O)Cc2c[nH]c3ccc(O)cc23)c(C)c1 (stereo not shown) [Example 7, N-(2-(3,5-difluorophenyl)-1-(3-(4-methoxy-2,6-dimethylphenyl)pyridin-2-yl)ethyl)-2-(5-hydroxy-1H-indol-3-yl)acetamide] | 17600 | 18 |  | 
19 | CC(C)C(C(=O)N[C@@H](Cc1cc(F)cc(F)c1)c1ncccc1-c1ccc(F)c(C(N)=O)c1)n1ccc(C(F)(F)F)n1 (single isomer, unassigned) [Example 479] | 26400 | 2 |  | 
20 | NC(=O)c1cc(-c2cccnc2[C@H](Cc2cc(F)cc(F)c2)NC(=O)Cn2nc(C(F)(F)F)c3c2C(O)C2CC32)ccc1F (stereo partly drawn) [Example 154, 5-(2-((1S)-2-(3,5-difluorophenyl)-1-(2-(5-hydroxy-3-(trifluoromethyl)-3b,4,4a,5-tetrahydro-1H-cyclopropa[3,4]cyclopenta[1,2-c]pyrazol-1-yl)acetamido)ethyl)pyridin-3-yl)-2-fluorobenzamide] | 36800 |  |  | 90
21 | Cc1cc2[nH]cc(CC(=O)N[C@@H](Cc3cc(F)cc(F)c3)c3ncccc3-c3cccc(C(N)=O)c3)c2[nH]c1=O [Example 354, (S)-3-(2-(2-(3,5-difluorophenyl)-1-(2-(6-methyl-5-oxo-4,5-dihydro-1H-pyrrolo[3,2-b]pyridin-3-yl)acetamido)ethyl)pyridin-3-yl)benzamide] | > 53000 | 82 |  | 
22 | O=C(Cn1nc(C(F)F)c2c1C(F)(F)C1CC21)N[C@@H](Cc1cc(F)cc(F)c1)c1ncccc1-c1ccc2[nH]ncc2c1 (stereo partly drawn) [Example 421, (S)—N-(1-(3-(indozol-5-yl)-pyridin-2-yl)-2-(3,5-difluorophenyl)ethyl)-2-(3-(difluoromethyl)-5,6-dihydro-4,5-(methano)-6,6-difluoro-cyclopenta[c]pyrazol-1(4H)-yl)acetamide] | 10200 | 70 |  | 
23 | NC(=O)c1cc(-c2cccnc2[C@H](Cc2cc(F)cc(F)c2)NC(=O)Cn2nc(C(F)(F)F)c3c2CCC2(C3)OCCO2)ccc1F [Example 468D, (S)-5-(2-(2-(3,5-difluorophenyl)-1-(2-(3′-(trifluoromethyl)-6′,7′-dihydrospiro[[1,3]dioxolane-2,5′-indazole]-1′(4′H)-yl)acetamido)ethyl)pyridin-3-yl)-2-fluorobenzamide] | > 53000 | 14 |  | 
